Measured values published in ChEMBL document CHEMBL5728225, “Modulators of P97 AAA ATPase activity” (2021).
Several values for one entry are separate records, joined by “and”; a condition that tells them apart may be missing. Identical values can stand only once.

assay: Biomol Green Assay: Biomol Green (Enzo) […] formed from a biochemical reaction. Because of its high sensitivity, the assay is suitable for monitoring enzyme activities at very early substrate conversions requiring very low amount of enzymes.

Row | SMILES | IC50
1 | Cc1cc(OCc2nnc(SC3C=CCCC3)n2-c2cccnc2)ccc1C#CCOC(=O)NN1CCN(C)CC1 (stereo not drawn) | 25 nM and 15 nM
2 | Cc1cc(OCc2cnc(SC3C=CCCC3)n2-c2cccnc2)ccc1C#CCOC(=O)NCCN1CCN(C(C)C)CC1 (stereo not drawn) | 26 nM
3 | Cc1cc(OCc2nnc(CC3CCCC3)n2-c2cccnc2)ccc1C#CCNC(=O)OC(C)(C)C | 260 nM
